Measured values taken from paper PMC8765781, “A platform of assays for the discovery of anti-Zika small-molecules with activity in a 3D-bioprinted outer-blood-retina model” (PLoS ONE, 2022).
Like-named read-outs stand apart in the source and are kept apart here.

Legend:
[1] = system: ZIKV-RLuc (Cambodian strain FSS13025); assay: microbe, parasite or virus in culture; type: cell-based, Zika virus; conditions: for AC50: Zika virus, Vero
[2] = read-out: Log AC50 (M) (converted)

Row | Structure (SMILES) | CC-v2 (curve class classification v2 of the dose response curve) [1] | Efficacy (difference between neutral response and maximum compound response) [1] | Max Resp (difference between neutral response and compound response for highest compound concentration) [1] | AC50 [1] [M] | AC50 [1, 2] [M] | AC50 (Vero cells) [µM] | Log AC50 (M) (Vero cells)
1 | CC(=O)N(C)C1(c2ccccc2)CCN(CCC[C@]2(c3ccc(Cl)c(Cl)c3)CCCN(C(=O)c3ccccc3)C2)CC1 [NCGC00263110-01] | -2.1 | -124.29 | -100.789 | 1.85e-05 | 1.85e-05 | 18.5 | -4.7327
2 | C[C@@H](Oc1cc(-n2cnc3ccc(CN4CCN(C)CC4)cc32)sc1C(N)=O)c1ccccc1C(F)(F)F [NCGC00263112-01] | -2.1 | -113.144 | -99.466 | 6.76e-06 | 6.76e-06 | 6.76 | -5.1699
3 | CC(=O)c1c(C)c2cnc(Nc3ccc(N4CCNCC4)cn3)nc2n(C2CCCC2)c1=O [NCGC00263129-04] | -2.2 | -88.43 | -70.898 | 1.65e-05 | 1.65e-05 | 16.5 | -4.7827
4 | Nc1nc(Nc2ccc([S+](N)(=O)[O-])cc2)nn1C(=O)c1c(F)cccc1F [NCGC00263151-01] | -2.1 | -94.324 | -90.046 | 1.65e-05 | 1.65e-05 | 16.5 | -4.7827
5 | Cc1ccc(C(=O)Nc2ccc(CN3CCN(C)CC3)c(C(F)(F)F)c2)cc1C#Cc1cnc2cccnn12 [NCGC00263152-01] | -1.1 | -88.579 | -98.949 | 1.85e-06 | 1.85e-06 | 1.85 | -5.7327
6 | CC(=O)Nc1ccc([C@H](C)C(=O)Nc2ncc(C(C)C)s2)cc1 [NCGC00263191-01] | -1.1 | -109.113 | -98.511 | 2.33e-06 | 2.33e-06 | 2.33 | -5.6327
7 | C/C=C1\NC(=O)[C@H]2CSSCC/C=C\[C@H](CC(=O)N[C@H](C(C)C)C(=O)N2)OC(=O)[C@H](C(C)C)NC1=O [NCGC00263220-05] | -1.1 | -96.055 | -99.405 | 2.33e-07 | 2.33e-07 | 0.233 | -6.6327
8 | CCOC(CN1C(=O)[C@](CC(=O)Nc2ccc(C)cc2)(NC(=O)Nc2ccc(C)cc2)c2ccccc21)OCC [NCGC00263225-01] | -2.1 | -106.258 | -97.88 | 2.33e-05 | 2.33e-05 | 23.3 | -4.6327
9 | Nc1ccc(C(=O)c2cc3c(ccc4ccccc43)[nH]2)cc1 [NCGC00263233-01] | -2.1 | -115.821 | -99.398 | 2.08e-05 | 2.08e-05 | 20.8 | -4.6827
10 | CN(C)c1ccc(C(=O)NCCCCCCC(=O)NO)cc1 [NCGC00263617-05] | -1.1 | -93.524 | -92.631 | 1.04e-05 | 1.04e-05 | 10.4 | -4.9827
